Assay results published in PubChem BioAssay AID2060892 (Molecular Pharmacology Branch, DTP, NCI, 2025).

System: HOP-62 complex spheroids with HUVEC/MSC, viability
Assay: Anticancer human tumor HOP-62 cell line growth inhibition [RAS];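 further: spheroids exposed to agents for seven days before readout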
Conditions: for IC50: curve of first compound; for viability, T/C: stronger effect = lower value; active means viability on the fitted dose curve at most 10% of control; inactive means the rest
Description: RAS pathway inhibitors in Combinations in Complex Spheroids
A high-throughput screen of multi-cell type tumor spheroids was designed to identify active combinations of RAS pathway inhibitors and targeted small molecules. Complex spheroids include a stromal component modeled by human endothelial cells (HUVEC) and fibroblasts modeled by human mesenchymal stem cells (MSCs). The concentration ranges selected for each drug and investigational agent were based upon clinically achievable concentrations if the clinical Cmax of the agent was known.
Compounds. The drugs and investigational agents: abemaciclib (NSC768073), cobimetinib (NSC768068), divarasib (GDC6063, NSC841802), docetaxel (NSC628503), GDC-1971 (RLY-1971, NSC841576), gemcitabine (NSC613327), inavolisib (NSC800729), ipatasertib (NSC767898), KB-0742 (NSC834161), MRTX-1133 (NSC836407), osimertinib (NSC779217), RMC-4630 (NSC839698), RMC-6236 (NSC851965), RMC-6291 (NSC852671), Ro-3306 (NSC812927), sapanisertib (NSC764658), SN-38 (NSC673596), staurosporine (NSC755774), SY5609 (NSC837396), and tovorafenib (DAY101, NSC766906), were obtained from the National Cancer Institute (NCI) Developmental Therapeutics Program Chemical Repository. The FDA-approved anticancer drug set is available from the NCI Developmental Therapeutics Program. […] The stock solutions were prepared in dimethyl sulfoxide (DMSO, Sigma-Aldrich, St. Louis, MO, cat. D2650) at 800-fold the tested concentration and stored at -70 degrees C prior to their use. All drugs and investigational agents were tested over a range starting from a high concentration at or near the clinical Cmax and decreasing in half-log increments. If the clinical Cmax for an agent had not been determined, the highest concentration tested was 10 microM.
Cell Culture. All cells were maintained in an incubator at 37 degrees C and 5% CO2 with 95% humidity. The PDC lines were cultured according to standard operating procedures established by the NCI PDMR. All PDCs were thawed and cultured in Matrigel-coated flasks prepared with a working solution of 1X Ham's F-12 nutrient mix, without supplementation (Invitrogen, Waltham, MA, cat. 11765054), 100 U/mL penicillin-streptomycin (Invitrogen, cat. 15140122), and 2.5% Matrigel (Corning Inc., Corning, NY, cat. 354248) for the first three passages. The 362531-283-R-J2-PDC and 782815-120-R-J1-PDC lines were cultured in 6C/Colon 1B media, which includes advanced DMEM/F-12 (Thermo Fisher Scientific, cat. 12634028), 10 mM HEPES (Thermo Fisher Scientific, cat. 15630080), 1X GlutaMAX supplement (Thermo Fisher Scientific, cat. 35050061), 0.1 mg/mL primocin (InvivoGen, San Diego, CA, cat. ant-pm-2), 10% defined fetal bovine serum, heat inactivated (HyClone Laboratories Inc., Logan, UT, cat. SH30070.03HI), 50% L-WRN conditioned media (ATCC, cat. CRL-3276), 1.25 mM N-Acetyl-L-cysteine (Sigma-Aldrich, cat. A9165), 10 mM nicotinamide (Sigma-Aldrich, cat. N0636), 1X B-27 supplement (Thermo Fisher Scientific, cat. 17504044), 1X N-2 supplement (Thermo Fisher Scientific, cat. 17502048), 50 ng/mL human EGF (Thermo Fisher Scientific, cat. PHG0311), and 10 microM Y-27632 dihydrochloride (Tocris Bioscience, cat. 1254). The K12877-001-R-J1-PDC line was cultured in 6I media, which includes all 6C/Colon 1B media plus 10 ng/mL human FGF-10 (PeproTech, cat. 100-26), 1 ng/mL human FGF-2 (PeproTech, cat. 100-18B), 1 µM prostaglandin E2 (Tocris Bioscience, cat. 2296), […] hydrocortisone (Sigma-Aldrich, cat. H4001), and […] bovine insulin (Sigma-Aldrich, cat. I6634). The K86415-001-R-J1-PDC line was cultured in 6D media, which includes all 6C/Colon 1B media components minus the L-WRN conditioned media. The 485176-168-R4-J1-PDC was cultured in PANC media, which includes all 6C/Colon 1B media plus 100 ng/mL human FGF-10 (PeproTech, cat. 100-26), 500 nM SB-431542 (Selleckchem, cat. S1067), and 10 nM gastrin (Tocris Bioscience, cat. 3006). […]

[1] = second compound 0.0316 µM, first compound 0.0316 µM
[2] = second compound 0.0316 µM, first compound 0.1 µM
[3] = second compound 0.0316 µM, first compound 0.316 µM
[4] = second compound 0.0316 µM, first compound 1 µM
[5] = second compound 0.0316 µM, first compound 3.16 µM
[6] = second compound 0.0316 µM, first compound 10 µM
[7] = second compound 0.1 µM, first compound 0.0316 µM
[8] = second compound 0.1 µM, first compound 0.1 µM
[9] = second compound 0.1 µM, first compound 0.316 µM
[10] = second compound 0.1 µM, first compound 1 µM
[11] = second compound 0.1 µM, first compound 3.16 µM
[12] = second compound 0.1 µM, first compound 10 µM
[13] = second compound 0.316 µM, first compound 0.0316 µM
[14] = second compound 0.316 µM, first compound 0.1 µM
[15] = second compound 0.316 µM, first compound 0.316 µM
[16] = second compound 0.316 µM, first compound 1 µM
[17] = second compound 0.316 µM, first compound 3.16 µM
[18] = second compound 0.316 µM, first compound 10 µM
[19] = second compound 1 µM, first compound 0.0316 µM
[20] = second compound 1 µM, first compound 0.1 µM
[21] = second compound 1 µM, first compound 0.316 µM
[22] = second compound 1 µM, first compound 1 µM
[23] = second compound 1 µM, first compound 3.16 µM
[24] = second compound 1 µM, first compound 10 µM
[25] = second compound 3.16 µM, first compound 0.0316 µM
[26] = second compound 3.16 µM, first compound 0.1 µM
[27] = second compound 3.16 µM, first compound 0.316 µM
[28] = second compound 3.16 µM, first compound 1 µM
[29] = second compound 3.16 µM, first compound 3.16 µM
[30] = second compound 3.16 µM, first compound 10 µM
[31] = second compound 10 µM, first compound 0.0316 µM
[32] = second compound 10 µM, first compound 0.1 µM
[33] = second compound 10 µM, first compound 0.316 µM
[34] = second compound 10 µM, first compound 1 µM
[35] = second compound 10 µM, first compound 3.16 µM
[36] = second compound 10 µM, first compound 10 µM

Cc1nc(N2CCC3(CC2)COC(C)C3N)c(CO)nc1Sc1ccnc(N)c1Cl (stereo unspecified) + C#Cc1c(F)ccc2cc(O)cc(-c3ncc4c(N5CC6CCC(C5)N6)nc(OCC56CCCN5CC(F)C6)nc4c3F)c12
> 10000 nM: IC50 (second compound 0.0316 µM) | IC50 (second compound 0.1 µM)
active: viability, T/C [35] 8.04% | viability, T/C [36] 8.15%
inactive: viability, T/C [1] 105% | viability, T/C [2] 112% | viability, T/C [3] 96.6% | viability, T/C [4] 82.5% | viability, T/C [5] 70.5% | viability, T/C [6] 64.8% | viability, T/C [7] 117% | viability, T/C [8] 97.7% | viability, T/C [9] 84.9% | viability, T/C [10] 79.1% | viability, T/C [11] 67.1% | viability, T/C [12] 48.5% | viability, T/C [13] 108% | viability, T/C [14] 97.6% | viability, T/C [15] 82.4% | viability, T/C [16] 64.8% | viability, T/C [17] 51.1% | viability, T/C [18] 34.5% | viability, T/C [19] 101% | viability, T/C [20] 79.5% | viability, T/C [21] 61.3% | viability, T/C [22] 46.6% | viability, T/C [23] 28.1% | viability, T/C [24] 25.6% | viability, T/C [25] 64.3% | viability, T/C [26] 51.3% | viability, T/C [27] 38.1% | viability, T/C [28] 27.1% | viability, T/C [29] 16.8% | viability, T/C [30] 11.2% | viability, T/C [31] 36.7% | viability, T/C [32] 32.4% | viability, T/C [33] 19.5% | viability, T/C [34] 10.1%
113 nM: IC50 (second compound 3.16 µM)
3110 nM: IC50 (second compound 0.316 µM)
< 31.6 nM: IC50 (second compound 10 µM)
669 nM: IC50 (second compound 1 µM)

NC1c2ccccc2OC12CCN(c1cnc3c(N4CCCc5ncccc54)n[nH]c3n1)CC2 (stereo unspecified) + C#Cc1c(F)ccc2cc(O)cc(-c3ncc4c(N5CC6CCC(C5)N6)nc(OCC56CCCN5CC(F)C6)nc4c3F)c12
1820 nM: IC50 (second compound 0.0316 µM)
330 nM: IC50 (second compound 0.316 µM)
71.1 nM: IC50 (second compound 1 µM)
772 nM: IC50 (second compound 0.1 µM)
< 31.6 nM: IC50 (second compound 3.16 µM) | IC50 (second compound 10 µM)
inactive: viability, T/C [1] 103% | viability, T/C [2] 80.8% | viability, T/C [3] 73.7% | viability, T/C [4] 57.2% | viability, T/C [5] 45.7% | viability, T/C [6] 26.6% | viability, T/C [7] 92.4% | viability, T/C [8] 91.4% | viability, T/C [9] 61.5% | viability, T/C [10] 49.9% | viability, T/C [11] 28.6% | viability, T/C [12] 27.1% | viability, T/C [13] 90.9% | viability, T/C [14] 76.7% | viability, T/C [15] 49.8% | viability, T/C [16] 29.9% | viability, T/C [17] 22.3% | viability, T/C [18] 15.1% | viability, T/C [19] 60.2% | viability, T/C [20] 45.7% | viability, T/C [21] 29.7% | viability, T/C [22] 19.3% | viability, T/C [23] 13.8% | viability, T/C [24] 12.7% | viability, T/C [25] 40.9% | viability, T/C [26] 20.9% | viability, T/C [27] 15.6% | viability, T/C [28] 11.8% | viability, T/C [29] 10.8% | viability, T/C [30] 12.2% | viability, T/C [31] 16.2% | viability, T/C [32] 11% | viability, T/C [33] 7.6% | viability, T/C [34] 8.99% | viability, T/C [35] 8.52% | viability, T/C [36] 17.5%

Nc1ccn(C2OC(CO)C(O)C2(F)F)c(=O)n1 (stereo unspecified) + C#Cc1c(F)ccc2cc(O)cc(-c3ncc4c(N5CC6CCC(C5)N6)nc(OCC56CCCN5CC(F)C6)nc4c3F)c12
6.38 nM: IC50 (second compound 0.0316 µM)
5.32 nM: IC50 (second compound 1 µM)
< 3.16 nM: IC50 (second compound 10 µM)
active: viability, T/C [1] 5.94% | viability, T/C [2] 5.61% | viability, T/C [3] 4.99% | viability, T/C [4] 6.52% | viability, T/C [7] 8.15% | viability, T/C [8] 4.9% | viability, T/C [9] 5.5% | viability, T/C [10] 6.42% | viability, T/C [13] 4.88% | viability, T/C [14] 4.68% | viability, T/C [15] 4.42% | viability, T/C [16] 4.04% | viability, T/C (second compound 1 µM, first compound 0.01 µM) 9.09% | viability, T/C [19] 4.77% | viability, T/C [20] 4.48% | viability, T/C [21] 3.43% | viability, T/C [22] 3.47% | viability, T/C [25] 5.06% | viability, T/C [26] 4.31% | viability, T/C [27] 5.01% | viability, T/C [28] 4.23% | viability, T/C [31] 8.09% | viability, T/C [32] 6.92% | viability, T/C [33] 8.08% | viability, T/C [34] 6.83%
5.94 nM: IC50 (second compound 0.316 µM)
5.77 nM: IC50 (second compound 0.1 µM)
inactive: viability, T/C (second compound 0.0316 µM, first compound 0.00316 µM) 107% | viability, T/C (second compound 0.0316 µM, first compound 0.01 µM) 13.4% | viability, T/C (second compound 0.1 µM, first compound 0.00316 µM) 92.4% | viability, T/C (second compound 0.1 µM, first compound 0.01 µM) 11.2% | viability, T/C (second compound 0.316 µM, first compound 0.00316 µM) 97.4% | viability, T/C (second compound 0.316 µM, first compound 0.01 µM) 10.9% | viability, T/C (second compound 1 µM, first compound 0.00316 µM) 83.7% | viability, T/C (second compound 3.16 µM, first compound 0.00316 µM) 67.8% | viability, T/C (second compound 3.16 µM, first compound 0.01 µM) 12.5% | viability, T/C (second compound 10 µM, first compound 0.00316 µM) 39.5% | viability, T/C (second compound 10 µM, first compound 0.01 µM) 12.1%
4.58 nM: IC50 (second compound 3.16 µM)
